Assay results: US20060223792A1, “Phenyl and pyridyl LTA4H modulators” (priority 2005, published 2006)

How the values were obtained:
[1] = tested on: LTB4 production by calcium ionophore-stimulated murine blood; assay: LTB4 production by calcium ionophore-stimulated murine blood for LTA4H inhibitor activity; assay type: cell-based, CD-1 mice; conditions: diluted CD-1 mouse whole blood, calcium ionophore A23187, LTB4 by enzyme-linked immunoassay
Description: LTB4 Production by Calcium Ionophore-Stimulated Murine Blood for LTA4H Inhibitor Activity
CD-1 mice were sacrificed, and blood was collected in heparin-containing syringes by cardiac puncture. The blood was diluted 1:15 with RPMI-1640 medium, and 200-μL aliquots of the diluted blood were added to wells of a 96-well microtiter plate. LTA4H inhibitor test compounds were prepared at different concentrations in RPMI-1640 medium containing […], and 20 μL of each test solution was added to a well containing diluted whole blood (final DMSO concentration of 0.1%). After the microtiter plate contents were incubated for 15 min at 37° C. in a humidified incubator, calcium ionophore A23187 (Sigma Chemical Co., St. Louis, Mo.) was added to each sample well (final concentration=20 ng/mL). The incubation was continued under the same conditions for an additional 10 min to allow LTB4 formation. The reaction was terminated by centrifugation (833×g, 10 min at 4° C.), and supernatants were analyzed for LTB4 by a commercially available enzyme-linked immunoassay (Cayman Chemical Co.) according to the manufacturer's instructions. Positive controls, under essentially identical conditions but without addition of an inhibitor compound, and negative unstimulated controls, containing all assay components except calcium ionophore, were routinely run in each experiment. IC50 values were determined by fitting the activity data at different compound concentrations to a 4-parameter equation using the Grafit program (Erithacus software).

[2] = tested on: ex vivo stimulated LTB4 production; assay: Murine arachidonic acid-induced inflammation model: ex vivo stimulated LTB4 production in blood; conditions: Mus musculus; 30 mg/kg oral gavage, female Balb/c mice; blood taken 3 h after arachidonic acid, stimulated ex vivo with A23187; read-out: % Inh. LTB4
Description: Murine Arachidonic Acid-Induced Inflammation Model
LTA4H inhibitor compounds of the present invention were dissolved in 20% cyclodextran/H2O at a concentration of 3 mg/mL. The solutions were administered by oral gavage to female Balb/c mice weighing approximately 20 grams each (0.2 mL per mouse, 30 mg of LTA4H inhibitor compound per kg). Sixty minutes after being administered an LTA4 inhibitor, each mouse received topical application of 20 μL of arachidonic acid (100 mg/mL in acetone) to the left ear and 20 μL of acetone only to the right ear. After 3 h, the mice were sacrificed, blood was withdrawn in heparinized syringes, and 8 mm ear biopsies were taken. Ear biopsies were weighed to determine edema and then frozen at −80° C. until needed for determination of neutrophil influx.
One hundred-microliter aliquots of heparinized blood were added to wells of a microtiter plate, along with equal volumes of RPMI-1640 medium, and calcium ionophore A23187 was added to each sample well (final concentration=[…]). The microtiter plate contents were incubated for 10 min at 37° C. in a humidified incubator. The reaction was terminated by centrifugation (833×g, 10 min at 4° C.). Supernatants were analyzed for LTB4 by a commercially available enzyme-linked immunoassay (Cayman Chemical Co.) in accordance with the manufacturer's instructions. The percent inhibition of ex vivo stimulated LTB4 production (% Inh. LTB4) was determined by comparison to animals treated identically except that the solution admininstered by oral gavage was devoid of inhibitor compound.

Structure (SMILES)	IC50 [1] [nM]	inhibition at 30 mg/kg [2] [%]
CN(C(=O)Oc1ccc(OCCN2CCC(O)(c3ccccc3)CC2)cc1)c1ccccc1 [Example 40, Methyl-phenyl-carbamic acid 4-[2-(4-hydroxy-4-phenyl-piperidin-1-yl)-ethoxy]-phenyl ester]	150	79
O=C(O)C1CCN(CCc2ccc(OCCc3ccccc3)cc2)CC1 [Example 81, 1-[2-(4-Phenethyloxy-phenyl)-ethyl]-piperidine-4-carboxylic acid]	181	78
O=C(O)C1CCN(Cc2ccc(OCCc3ccccc3)cc2)CC1 [Example 96, 1-(4-Phenethyloxy-benzyl)-piperidine-4-carboxylic acid]	7	80
O=C1CCCN1C1CCN(Cc2ccc(OCCc3ccccc3)cc2)CC1 [Example 99, 1-[1-(4-Phenethyloxy-benzyl)-piperidin-4-yl]-pyrrolidin-2-one]	123	68
O=C(O)C1CCN(Cc2ccc(OCCCc3ccccc3)cc2)CC1 [Example 112, 1-[4-(3-Phenyl-propoxy)-benzyl]-piperidine-4-carboxylic acid]	10	91
O=C(O)C1CCN(CCOc2ccc(OCCCc3ccccc3)cc2)CC1 [Example 117, 1-{2-[4-(3-Phenyl-propoxy)-phenoxy]-ethyl}-piperidine-4-carboxylic acid]	79	74
